Reference: patent publication US11685729B2, “C5a receptor modulators” (IDORSIA PHARMACEUTICALS LTD., priority 2018, dated 2023)

Molecular target: C5AR1 (Homo sapiens (Human), UniProt P21730)
Experiment: In vitro assay: PathHunter beta-arrestin antagonist assay in CHO-K1 C5AR1 beta-arrestin cell line, stimulated with C5a agonist
Conditions: read-out: C5aR IC50; CHO-K1 C5AR1 beta-arrestin cell line; 1-10 nM C5a agonist; geometric mean values
Protocol: 5 μl Antagonist at 6-fold end concentration or DMSO control is added to assay medium and subsequently 5 μl 1-10 nM C5a agonist at 6 fold end concentration. Cells are centrifuged for 1 min at 1000 rpm and incubated for 1.5 hour in at 37° C. Plates are equilibrated at room temperature for several minutes before adding 12 μI/well Detection Reagent (PathHunter Detection Kit, DiscoverX, Cat #93-0001). Plates are centrifuged for 1 min at 1000 rpm and incubated for 45 minutes at RT before being measured on a Fluostar Optima, BMG Labtech. IC50 values are calculated from a serial dilution range of antagonist using inhouse software and given in nmol/l.
The calculated IC50 values may fluctuate depending on the daily cellular assay performance. […] Average IC50 values from several measurements are given as geometric mean values.

Chain of C5AR1 (P21730 whole entry): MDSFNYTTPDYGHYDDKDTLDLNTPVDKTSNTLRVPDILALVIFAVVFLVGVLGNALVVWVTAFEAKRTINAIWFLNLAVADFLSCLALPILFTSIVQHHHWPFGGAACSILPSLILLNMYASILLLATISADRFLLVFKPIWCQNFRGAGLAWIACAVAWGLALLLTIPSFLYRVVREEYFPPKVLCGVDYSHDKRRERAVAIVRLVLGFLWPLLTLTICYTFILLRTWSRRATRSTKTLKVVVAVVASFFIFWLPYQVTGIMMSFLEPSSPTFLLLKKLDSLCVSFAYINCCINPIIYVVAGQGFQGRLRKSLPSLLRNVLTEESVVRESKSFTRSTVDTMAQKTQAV

Row | Structure (SMILES) | IC50
1 | COc1ccccc1CN1C(=O)N(C2CCN(c3c(C)cccc3C)CC2)Cc2ccccc21 [Example 36, 3-[1-(2,6-Dimethyl-phenyl)-piperidin-4-yl]-1-(2-methoxy-benzyl)-3,4-dihydro-1H-quinazolin-2-one] | 199 nM
2 | COc1nccnc1CN1C(=O)N(C2CCN(c3c(F)cccc3C#N)CC2)Cc2ccccc21 [Example 39, 3-Fluoro-2-{4-[1-(3-methoxy-pyrazin-2-ylmethyl)-2-oxo-1,4-dihydro-2H-quinazolin-3-yl]-piperidin-1-yl}-benzonitrile] | 1050 nM
3 | CCOc1ccccc1CN1C(=O)N(C2CCN(c3c(C)cccc3F)CC2)Cc2ccccc21 [Example 46, 1-(2-Ethoxy-benzyl)-3-[1-(2-fluoro-6-methyl-phenyl)-piperidin-4-yl]-3,4-dihydro-1H-quinazolin-2-one] | 35 nM
4 | CC(=O)OCCOc1ccccc1CN1C(=O)N(C2CCN(c3c(C)cccc3F)CC2)Cc2ccccc21 [Example 48, Acetic acid 2-(2-{3-[1-(2-fluoro-6-methyl-phenyl)-piperidin-4-yl]-2-oxo-3,4-dihydro-2H-quinazolin-1-ylmethyl}-phenoxy)-ethyl ester] | 298 nM
5 | COC(=O)C(c1ccccc1OC)N1C(=O)N(C2CCN(c3c(C)cccc3F)CC2)Cc2ccccc21 (stereo not drawn) [Example 49, {3-[1-(2-Fluoro-6-methyl-phenyl)-piperidin-4-yl]-2-oxo-3,4-dihydro-2H-quinazolin-1-yl}-(2-methoxy-phenyl)-acetic acid methyl ester] | 102 nM
6 | Cc1cccc(F)c1N1CCC(N2Cc3ccccc3N(Cc3ccccc3OC3COC3)C2=O)CC1 [Example 51, 3-[1-(2-Fluoro-6-methyl-phenyl)-piperidin-4-yl]-1-[2-(oxetan-3-yloxy)-benzyl]-3,4-dihydro-1H-quinazolin-2-one] | 113 nM
7 | Cc1cccc(F)c1N1CCC(N2Cc3ccccc3N(Cc3ccccc3OC3CCC3)C2=O)CC1 [Example 52, 1-(2-Cyclobutoxy-benzyl)-3-[1-(2-fluoro-6-methyl-phenyl)-piperidin-4-yl]-3,4-dihydro-1H-quinazolin-2-one] | 69 nM
8 | Cc1cccc(F)c1N1CCC(N2Cc3ccccc3N(Cc3ccccc3OC3CCOCC3)C2=O)CC1 [Example 53, 3-[1-(2-Fluoro-6-methyl-phenyl)-piperidin-4-yl]-1-[2-(tetrahydro-pyran-4-yloxy)-benzyl]-3,4-dihydro-1H-quinazolin-2-one] | 32 nM
9 | Cc1cccc(F)c1N1CCC(N2Cc3ccccc3N(Cc3ccccc3C3CC3)C2=O)CC1 [Example 56, 1-(2-Cyclopropyl-benzyl)-3-[1-(2-fluoro-6-methyl-phenyl)-piperidin-4-yl]-3,4-dihydro-1H-quinazolin-2-one] | 28 nM
10 | Cc1cccc(F)c1N1CCC(N2Cc3nccnc3N(Cc3ccccc3C(F)(F)F)C2=O)CC1 [Example 58, 3-[1-(2-Fluoro-6-methyl-phenyl)-piperidin-4-yl]-1-(2-trifluoromethyl-benzyl)-3,4-dihydro-1H-pteridin-2-one] | 21 nM

More lines, in order of falling IC50, values ahead:

Row | IC50 | Structure (SMILES)
11 | 2560 nM | Cc1cccc(F)c1N1CCC(N2Cc3ccccc3N(Cc3ccccc3OCCO)C2=O)CC1 [Example 50, 3-[1-(2-Fluoro-6-methyl-phenyl)-piperidin-4-yl]-1-[2-(2-hydroxy-ethoxy)-benzyl]-3,4-dihydro-1H-quinazolin-2-one]
12 | 1660 nM | Cc1cccc(F)c1N1CCC(N2Cc3ccccc3N(Cc3ccccc3OCCN(C)C)C2=O)CC1 [Example 47, 1-[2-(2-Dimethylamino-ethoxy)-benzyl]-3-[1-(2-fluoro-6-methyl-phenyl)-piperidin-4-yl]-3,4-dihydro-1H-quinazolin-2-one]
13 | 512 nM | Cc1cccc(F)c1N1CCC(N2Cc3ccccc3N(Cc3ccccc3OCC#N)C2=O)CC1 [Example 55, (2-{3-[1-(2-Fluoro-6-methyl-phenyl)-piperidin-4-yl]-2-oxo-3,4-dihydro-2H-quinazolin-1-ylmethyl}-phenoxy)-acetonitrile]
14 | 299 nM | COc1nccnc1CN1C(=O)N(C2CCN(c3c(C)cccc3F)CC2)Cc2ccccc21 [Example 43, 3-[1-(2-Fluoro-6-methyl-phenyl)-piperidin-4-yl]-1-(3-methoxy-pyrazin-2-ylmethyl)-3,4-dihydro-1H-quinazolin-2-one]
15 | 211 nM | N#Cc1cccc(F)c1N1CCC(N2Cc3ccccc3N(Cc3nccnc3C(F)(F)F)C2=O)CC1 [Example 38, 3-Fluoro-2-{4-[2-oxo-1-(3-trifluoromethyl-pyrazin-2-ylmethyl)-1,4-dihydro-2H-quinazolin-3-yl]-piperidin-1-yl}-benzonitrile]
16 | 191 nM | Cc1cccc(F)c1N1CCC(N2Cc3ccccc3N(C(C)c3ccccc3C(F)(F)F)C2=O)CC1 (stereo not drawn) [Example 45, 3-[1-(2-Fluoro-6-methyl-phenyl)-piperidin-4-yl]-1-[1-(2-trifluoromethyl-phenyl)-ethyl]-3,4-dihydro-1H-quinazolin-2-one]
17 | 138 nM | COc1ccccc1CN1C(=O)N(C2CCN(c3c(C)cccc3F)CC2)Cc2ccccc21 [Example 37, 3-[1-(2-Fluoro-6-methyl-phenyl)-piperidin-4-yl]-1-(2-methoxy-benzyl)-3,4-dihydro-1H-quinazolin-2-one]
18 | 135 nM | COc1ccccc1C(C)N1C(=O)N(C2CCN(c3c(C)cccc3F)CC2)Cc2ccccc21 (stereo not drawn) [Example 40, 3-[1-(2-Fluoro-6-methyl-phenyl)-piperidin-4-yl]-1-[1-(2-methoxy-phenyl)-ethyl]-3,4-dihydro-1H-quinazolin-2-one]
19 | 109 nM | Cc1cccc(F)c1N1CCC(N2Cc3ccnnc3N(Cc3ccccc3C(F)(F)F)C2=O)CC1 [Example 41, 6-[1-(2-Fluoro-6-methyl-phenyl)-piperidin-4-yl]-8-(2-trifluoromethyl-benzyl)-5,8-dihydro-6H-pyrimido[4,5-c]pyridazin-7-one]
20 | 66 nM | Cc1cccc(F)c1N1CCC(N2Cc3ccccc3N(Cc3ccccc3OCC3CC3)C2=O)CC1 [Example 54, 1-(2-Cyclopropylmethoxy-benzyl)-3-[1-(2-fluoro-6-methyl-phenyl)-piperidin-4-yl]-3,4-dihydro-1H-quinazolin-2-one]
21 | 63 nM | Cc1cccc(F)c1N1CCC(N2Cc3ccccc3N(Cc3nccnc3C(F)(F)F)C2=O)CC1 [Example 42, 3-[1-(2-Fluoro-6-methyl-phenyl)-piperidin-4-yl]-1-(3-trifluoromethyl-pyrazin-2-ylmethyl)-3,4-dihydro-1H-quinazolin-2-one]
22 | 43 nM | COc1ccccc1CN1C(=O)N([C@@H]2CCN(c3c(C)cccc3F)C2)Cc2ccccc21 [Example 35, 3-[(R)-1-(2-Fluoro-6-methyl-phenyl)-pyrrolidin-3-yl]-1-(2-methoxy-benzyl)-3,4-dihydro-1H-quinazolin-2-one]
23 | 33 nM | Cc1cccc(F)c1N1CCC(N2Cc3ccccc3N(Cc3ccccc3OC(C)C)C2=O)CC1 [Example 44, 3-[1-(2-Fluoro-6-methyl-phenyl)-piperidin-4-yl]-1-(2-isopropoxy-benzyl)-3,4-dihydro-1H-quinazolin-2-one]
24 | 24 nM | Cc1cccc(F)c1N1CCC(N2Cc3ccccc3N(Cc3ccccc3C(C)C)C2=O)CC1 [Example 57, 3-[1-(2-Fluoro-6-methyl-phenyl)-piperidin-4-yl]-1-(2-isopropyl-benzyl)-3,4-dihydro-1H-quinazolin-2-one]
